The results in this text go back to patent US10793568B2, “Hormone receptor modulators for treating metabolic conditions and disorders” (ARDELYX, INC., priority 2016, dated 2020).

Usually pEC50 stands for −log10 of the EC50, conventionally taken in molar units. High values mean a low EC50, low ones a high EC50.

Assay [1] has as its target ligand binding domain of human FXR (Homo sapiens (Human), UniProt Q96RI1). Kind of assay: FXR ligand binding assay (LanthaScreen TR-FRET, SRC2-2 peptide recruitment). As to conditions: for Emax: extent of activation relative to GW4064, read-out: % Efficacy. (In TR-FRET formats the signal depends on donor and acceptor labels being close together.)
Assay [2] has as its target human Farnesoid X receptor ligand-binding domain/Gal4 DNA binding domain chimera (Homo sapiens (Human), UniProt Q96RI1). Kind of assay: Cell-based assay of FXR activation (FXR-UAS-bla HEK 293T beta-lactamase reporter). As to conditions: cellular FXR beta-lactamase reporter assay; for Emax: HEK-293T, extent of activation relative to GW4064, read-out: % Efficacy; for EC50: FXR-UAS-bla HEK 293T cells, 16 h, pEC50 = -log EC50. An outline of the steps:
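HEK 293T cells stably expressing a Gal4-fused human FXR LBD and a UAS-driven beta-lactamase reporter were incubated with serially diluted compounds for 16 h at 37 °C in phenol red-free DMEM with 2% charcoal-stripped FBS. CCF4 FRET read-out: excitation 409 nm, emission 447 nm. pEC50 comes from a 3-parameter logistic fit, and efficacy is given as % of GW4064.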

[3] abbreviates: -log EC50, concentration required to produce 50% activation.

Each structure is given as a SMILES string.

human Farnesoid X receptor ligand-binding domain/Gal4 DNA binding domain chimera, sequence (Q96RI1 262-486, change not shown): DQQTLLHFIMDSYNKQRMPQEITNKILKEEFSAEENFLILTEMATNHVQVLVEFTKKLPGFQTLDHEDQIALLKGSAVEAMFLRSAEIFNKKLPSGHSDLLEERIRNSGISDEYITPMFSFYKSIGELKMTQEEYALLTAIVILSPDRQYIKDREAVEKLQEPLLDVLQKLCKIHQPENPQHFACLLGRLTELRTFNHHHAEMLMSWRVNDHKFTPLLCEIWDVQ
human Farnesoid X receptor ligand-binding domain/Gal4 DNA binding domain chimera, sequence (P04386 1-147 partner): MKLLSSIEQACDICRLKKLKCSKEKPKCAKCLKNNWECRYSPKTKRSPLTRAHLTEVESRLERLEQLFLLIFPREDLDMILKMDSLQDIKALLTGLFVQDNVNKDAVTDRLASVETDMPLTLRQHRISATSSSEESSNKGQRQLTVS
ligand binding domain of human FXR, sequence (Q96RI1 262-486): as the sequence (Q96RI1 262-486, change not shown) above

On to `O=C(O)C1(c2ccc(N3C[C@@H]4C[C@H]3C[C@H]4OCc3c(-c4c(Cl)cccc4Cl)noc3C3CC3)cc2)CCC1` [Compound I-150, 1-{4-[(1S,4S,5R)-5-{[5-cyclopropyl-3-(2,6-dichlorophenyl)-1,2-oxazol-4-yl]methoxy}-2-azabicyclo[2.2.1]heptan-2-yl]phenyl}cyclobutane-1-carboxylic Acid], for which, in assay [1] (setting [3]), the negative logarithm of the EC50 (pEC50) turned out to be 8.9. Further, in assay [1], the Emax is 102%. In addition, in assay [2], the Emax worked out at 96% and the EC50 is 25.1 nM.

With `O=C(NS(=O)(=O)C1CCOCC1)c1ccc(N2C[C@@H]3C[C@H]2C[C@H]3OCc2c(-c3c(Cl)cccc3Cl)noc2C2CC2)cc1` [Compound I-182, 4-[(1S,4S,5R)-5-{[5-cyclopropyl-3-(2,6-dichlorophenyl)-1,2-oxazol-4-yl]methoxy}-2-azabicyclo[2.2.1]heptan-2-yl]-N-(oxane-4-sulfonyl)benzamide], the values for the EC50 in assay [1] (setting [3]) and in assay [2] were 1.26 nM and 0.158 nM, respectively. Also, the figures for the Emax in assay [1] and in assay [2] were 156% and 106%, respectively.

For the molecule `CCOc1cc(C(=O)O)cc2sc(N3C[C@@H]4C[C@H]3C[C@H]4OC(=O)c3c(-c4c(Cl)cccc4Cl)noc3C3CC3)nc12` [Compound I-8, 2-[(1S,4S,5R)-5-[5-cyclopropyl-3-(2,6-dichlorophenyl)-1,2-oxazole-4-carbonyloxy]-2-azabicyclo[2.2.1]heptan-2-yl]-4-ethoxy-1,3-benzothiazole-6-carboxylic acid], the pEC50 in assay [1] (setting [3]) worked out at 7.6. In assay [1], the Emax was determined as 137%. Further, in assay [2], the Emax stood at 106% and the EC50 was 2.51 nM.

`Cc1cccc(C)c1-c1noc(C2CC2)c1CO[C@@H]1C[C@@H]2C[C@H]1CN2c1ccc(C(=O)O)cc1F` [Compound I-116, 4-[(1S,4S,5R)-5-{[5-cyclopropyl-3-(2,6-dimethylphenyl)-1,2-oxazol-4-yl]methoxy}-2-azabicyclo[2.2.1]heptan-2-yl]-3-fluorobenzoic Acid] showed a negative logarithm of the EC50 (pEC50) in assay [1] (setting [3]) of 8.6. Moreover, the Emax amounted to 131% in assay [1] and 102% in assay [2]. Moreover, in assay [2], the EC50 is 3.98 nM.

Consider `O=C(NS(=O)(=O)CCCO)c1ccc(N2C[C@@H]3C[C@H]2C[C@H]3OCc2c(-c3c(Cl)cccc3Cl)noc2C2CC2)cc1` [Compound I-215, 4-[(1S,4S,5R)-5-{[5-cyclopropyl-3-(2,6-dichlorophenyl)-1,2-oxazol-4-yl]methoxy}-2-azabicyclo[2.2.1]heptan-2-yl]-N-(3-hydroxypropanesulfonyl)benzamide], for which the pEC50 in assay [1] (setting [3]) is reported as 8.6. Also, the Emax in assay [1] worked out at 142%. Also, in assay [2], the Emax came out at 107% and the EC50 was 1.58 nM.

For the molecule `O=C(NS(=O)(=O)CC1CCOCC1)c1ccc(N2C(=O)[C@@H]3C[C@H]2C[C@H]3OCc2c(-c3c(Cl)cccc3Cl)noc2C2CC2)cc1` [Compound I-339, 4-((1S,4R,5R)-5-((5-cyclopropyl-3-(2,6-dichlorophenyl)isoxazol-4-yl)methoxy)-3-oxo-2-azabicyclo[2.2.1]heptan-2-yl)-N-(((tetrahydro-2H-pyran-4-yl)methyl)sulfonyl)benzamide], the pEC50 in assay [1] (setting [3]) is recorded as 8.6. For the same molecule, the Emax in assay [1] is 198%; in assay [2], 118%. The EC50 in assay [2] is 5.01 nM.

In the case of `O=C(NS(=O)(=O)C1CC1)c1ccc(N2C[C@@H]3C[C@H]2C[C@H]3OC(=O)c2c(-c3c(Cl)cccc3Cl)noc2C2(F)CC2)c(F)c1` [Compound I-199, (1S,4S,5R)-2-(4-((cyclopropylsulfonyl)carbamoyl)-2-fluorophenyl)-2-azabicyclo[2.2.1]heptan-5-yl 3-(2,6-dichlorophenyl)-5-(1-fluorocyclopropyl)isoxazole-4-carboxylate], the pEC50 in assay [1] (setting [3]) was 7.4. The results for the Emax in assay [1] and in assay [2] were 146% and 110%, respectively. In assay [2], this molecule gave an EC50 of 10 nM.

In assay [1] (setting [3]), `CS(=O)(=O)NC(=O)CCc1ccc(N2C[C@@H]3C[C@H]2C[C@H]3OCc2c(-c3c(Cl)cccc3Cl)noc2C2CC2)c(F)c1` [Compound I-236, 3-(4-((1S,4S,5R)-5-((5-cyclopropyl-3-(2,6-dichlorophenyl)isoxazol-4-yl)methoxy)-2-azabicyclo[2.2.1]heptan-2-yl)-3-fluorophenyl)-N-(methylsulfonyl)propanamide] registered a pEC50 of 8.4. For the same molecule, the Emax in assay [1] worked out at 156%; in assay [2] it was 95%. For the same molecule, in assay [2], the EC50 is 2.51 nM.

For the molecule `O=C(O)c1cc(C2CCC2)c2nc(N3C[C@H]4C[C@@H]3C[C@@H]4OCc3c(-c4c(Cl)cccc4Cl)noc3C3CC3)sc2c1` [Compound I-284, 4-cyclobutyl-2-[(1R,4R,5S)-5-{[5-cyclopropyl-3-(2,6-dichlorophenyl)-1,2-oxazol-4-yl]methoxy}-2-azabicyclo[2.2.1]heptan-2-yl]-1,3-benzothiazole-6-carboxylic Acid], in assay [1] (setting [3]), the pEC50 was 9. In assay [1], the Emax was 116%. Moreover, in assay [2], the Emax worked out at 100% and the EC50 was 3.16 nM.

Regarding `O=C(O)c1ccc(C2CC2)cc1N1C(=O)[C@@H]2C[C@H]1C[C@H]2OCc1c(-c2c(Cl)cccc2Cl)noc1C1CC1` [Compound I-320, 4-cyclopropyl-2-[(1S,4R,5R)-5-{[5-cyclopropyl-3-(2,6-dichlorophenyl)-1,2-oxazol-4-yl]methoxy}-3-oxo-2-azabicyclo[2.2.1]heptan-2-yl]benzoic Acid], the negative logarithm of the EC50 (pEC50) in assay [1] (setting [3]) is recorded as 7.5. For the same molecule, the Emax in assay [1] is 114%. In assay [2], the Emax was determined as 110% and the EC50 is 20 nM.

Take `N#Cc1c(F)cc(N2C[C@@H]3C[C@H]2C[C@H]3OCc2c(-c3c(Cl)cccc3Cl)noc2C2CC2)cc1F` [Compound I-133, 4-[(1S,4S,5R)-5-{[5-cyclopropyl-3-(2,6-dichlorophenyl)-1,2-oxazol-4-yl]methoxy}-2-azabicyclo[2.2.1]heptan-2-yl]-2,6-difluorobenzonitrile]: the pEC50 in assay [1] (setting [3]) is reported as 7.4. Further, the values for the Emax in assay [1] and in assay [2] were 79% and 106%, respectively. For the same molecule, the EC50 in assay [2] was below 39.8 nM.

As for `CCCS(=O)(=O)NC(=O)c1ccc(N2C[C@@H]3C[C@H]2C[C@H]3OCc2c(-c3c(Cl)cccc3Cl)noc2C2CC2)cc1` [Compound I-59, 4-[(1S,4S,5R)-5-{[5-cyclopropyl-3-(2,6-dichlorophenyl)-1,2-oxazol-4-yl]methoxy}-2-azabicyclo[2.2.1]heptan-2-yl]-N-(propane-1-sulfonyl)benzamide], the pEC50 in assay [1] (setting [3]) was found to be 8.2. The Emax in assay [1] stood at 176%. In assay [2], the Emax stood at 103% and the EC50 was 0.1 nM.

In assay [1] (setting [3]), `O=C(O)c1cc(C2CCCOCC2)c2nc(N3C[C@@H]4C[C@H]3C[C@H]4OCc3c(-c4c(Cl)cccc4Cl)noc3C3CC3)sc2c1` (stereo partly drawn) [Compound I-258, 2-[(1S,4S,5R)-5-{[5-cyclopropyl-3-(2,6-dichlorophenyl)-1,2-oxazol-4-yl]methoxy}-2-azabicyclo[2.2.1]heptan-2-yl]-4-(oxepan-4-yl)-1,3-benzothiazole-6-carboxylic Acid] yielded a pEC50 of 8.6. The Emax in assay [1] is 146%. In assay [2], the Emax stood at 106% and the EC50 is 0.126 nM.
